Common to all, as to experiment: relative viability (nuclei count vs DMSO), 5 days (fraction); higher = more cells survive
Compound in the test “Venetoclax + Foretinib”: CC1(C)CCC(CN2CCN(c3ccc(C(=O)NS(=O)(=O)c4ccc(NCC5CCOCC5)c([N+](=O)[O-])c4)c(Oc4cnc5[nH]ccc5c4)c3)CC2)=C(c2ccc(Cl)cc2)C1 [Venetoclax] + COc1cc2c(Oc3ccc(NC(=O)C4(C(=O)Nc5ccc(F)cc5)CC4)cc3F)ccnc2cc1OCCCN1CCOCC1 [Foretinib] (partner 0.25 µM)
A digest of the protocol:
(§1)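 For relative viability, nuclei counts in treated wells were divided by those in vehicle wells. Lung cancer cell lines had been pin-tool dosed in 1536-well plates the day after seeding and cultured for 5 days, then fixed and stained in one step (final 0.05% Triton X-100, 1% formaldehyde, 1 ug/ml Hoechst) and imaged at 4×. Doses were one drug alone or a fixed anchor-drug dose plus five library-drug doses (not always all listed) in √10 steps, and values are duplicate-plate medians.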

Compound in the test “Selumetinib + Olaparib”: Cn1cnc2c(F)c(Nc3ccc(Br)cc3Cl)c(C(=O)NOCCO)cc21 [Selumetinib] + O=C(c1cc(Cc2n[nH]c(=O)c3ccccc23)ccc1F)N1CCN(C(=O)C2CC2)CC1 [Olaparib] (partner 8 µM)
In a few lines: as §1

Compound in the test “Selumetinib + Tozasertib”: Cn1cnc2c(F)c(Nc3ccc(Br)cc3Cl)c(C(=O)NOCCO)cc21 [Selumetinib] + Cc1cc(Nc2cc(N3CCN(C)CC3)nc(Sc3ccc(NC(=O)C4CC4)cc3)n2)n[nH]1 [Tozasertib] (partner 0.1 µM)
A digest of the protocol:
as §1

Compound in the test “Venetoclax + Pictilisib”: CC1(C)CCC(CN2CCN(c3ccc(C(=O)NS(=O)(=O)c4ccc(NCC5CCOCC5)c([N+](=O)[O-])c4)c(Oc4cnc5[nH]ccc5c4)c3)CC2)=C(c2ccc(Cl)cc2)C1 [Venetoclax] + CS(=O)(=O)N1CCN(Cc2cc3nc(-c4cccc5[nH]ncc45)nc(N4CCOCC4)c3s2)CC1 [Pictilisib] (partner 1 µM)
In a few lines: as §1

HCC-827: the relative viability in the test with Venetoclax + Foretinib (first compound 0.01 µM) is 0.966; in the test with Venetoclax + Foretinib (first compound 0.03162 µM), 1.03; with Venetoclax + Foretinib (first compound 0.1 µM) it was 0.971; with Venetoclax + Foretinib (first compound 0.3162 µM), 0.98; with Venetoclax + Foretinib (first compound 1 µM), 0.916; in the test with Selumetinib + Olaparib (first compound 0.02 µM), 0.705. Further, the relative viability with Selumetinib + Olaparib (first compound 0.06325 µM) was 0.672; with Selumetinib + Olaparib (first compound 0.2 µM), 0.681; with Selumetinib + Olaparib (first compound 0.6325 µM), 0.719; with Selumetinib + Tozasertib (first compound 0.02 µM) it was 0.42; in the test with Selumetinib + Tozasertib (first compound 0.06325 µM), 0.393; with Selumetinib + Tozasertib (first compound 0.2 µM) it was 0.408. In addition, the relative viability was 0.361 in the test with Selumetinib + Tozasertib (first compound 0.6325 µM); 1.01 in the test with Venetoclax + Pictilisib (first compound 0.01 µM); 1.31 with Venetoclax + Pictilisib (first compound 0.03162 µM); 0.912 with Venetoclax + Pictilisib (first compound 0.1 µM); 0.929 in the test with Venetoclax + Pictilisib (first compound 0.3162 µM); 1.02 with Venetoclax + Pictilisib (first compound 1 µM).

Turning to NCI-H1437, the relative viability with Venetoclax + Foretinib (first compound 0.01 µM) was 1.28; with Venetoclax + Foretinib (first compound 0.03162 µM), 1.24; with Venetoclax + Foretinib (first compound 0.1 µM) it was 1.25; with Venetoclax + Foretinib (first compound 0.3162 µM) it was 1.26; with Venetoclax + Foretinib (first compound 1 µM) it was 1.15; with Selumetinib + Olaparib (first compound 0.02 µM), 0.665. Moreover, the relative viability in the test with Selumetinib + Olaparib (first compound 0.06325 µM) was determined as 0.58; in the test with Selumetinib + Olaparib (first compound 0.2 µM) it was 0.549; in the test with Selumetinib + Olaparib (first compound 0.6325 µM), 0.47; in the test with Selumetinib + Tozasertib (first compound 0.02 µM), 0.319; with Selumetinib + Tozasertib (first compound 0.06325 µM), 0.359; in the test with Selumetinib + Tozasertib (first compound 0.2 µM), 0.274. In addition, the relative viability with Selumetinib + Tozasertib (first compound 0.6325 µM) was 0.2; with Venetoclax + Pictilisib (first compound 0.01 µM), 0.538; with Venetoclax + Pictilisib (first compound 0.03162 µM) it was 0.443; with Venetoclax + Pictilisib (first compound 0.1 µM), 0.435; with Venetoclax + Pictilisib (first compound 0.3162 µM), 0.386; in the test with Venetoclax + Pictilisib (first compound 1 µM) it was 0.404.

Turning to PC-14, the relative viability with Venetoclax + Foretinib (first compound 0.01 µM) was 0.945; in the test with Venetoclax + Foretinib (first compound 0.03162 µM), 0.968; in the test with Venetoclax + Foretinib (first compound 0.1 µM) it was 0.939; with Venetoclax + Foretinib (first compound 0.3162 µM), 0.966; with Venetoclax + Foretinib (first compound 1 µM), 0.822; with Selumetinib + Olaparib (first compound 0.02 µM), 0.294. Besides, the relative viability in the test with Selumetinib + Olaparib (first compound 0.06325 µM) came out at 0.226; in the test with Selumetinib + Olaparib (first compound 0.2 µM) it was 0.252; with Selumetinib + Olaparib (first compound 0.6325 µM), 0.241; with Selumetinib + Tozasertib (first compound 0.02 µM) it was 0.529; in the test with Selumetinib + Tozasertib (first compound 0.06325 µM), 0.486; with Selumetinib + Tozasertib (first compound 0.2 µM) it was 0.532. In addition, the relative viability is 0.434 in the test with Selumetinib + Tozasertib (first compound 0.6325 µM); 0.588 in the test with Venetoclax + Pictilisib (first compound 0.01 µM); 0.649 with Venetoclax + Pictilisib (first compound 0.03162 µM); 0.693 in the test with Venetoclax + Pictilisib (first compound 0.1 µM); 0.81 with Venetoclax + Pictilisib (first compound 0.3162 µM); 0.604 with Venetoclax + Pictilisib (first compound 1 µM).

Consider NCI-H2228, for which the relative viability with Venetoclax + Foretinib (first compound 0.01 µM) came out at 0.788; with Venetoclax + Foretinib (first compound 0.03162 µM), 0.906; in the test with Venetoclax + Foretinib (first compound 0.1 µM) it was 0.851; with Venetoclax + Foretinib (first compound 0.3162 µM), 1; with Venetoclax + Foretinib (first compound 1 µM), 0.776; with Selumetinib + Olaparib (first compound 0.02 µM), 0.754. Also, the relative viability with Selumetinib + Olaparib (first compound 0.06325 µM) amounted to 0.69; with Selumetinib + Olaparib (first compound 0.2 µM), 0.685; in the test with Selumetinib + Olaparib (first compound 0.6325 µM), 0.608; with Selumetinib + Tozasertib (first compound 0.02 µM) it was 0.247; with Selumetinib + Tozasertib (first compound 0.06325 µM), 0.255; with Selumetinib + Tozasertib (first compound 0.2 µM), 0.211. The relative viability in the test with Selumetinib + Tozasertib (first compound 0.6325 µM) was found to be 0.204; with Venetoclax + Pictilisib (first compound 0.01 µM), 0.321; in the test with Venetoclax + Pictilisib (first compound 0.03162 µM) it was 0.416; with Venetoclax + Pictilisib (first compound 0.1 µM), 0.395; with Venetoclax + Pictilisib (first compound 0.3162 µM), 0.358; with Venetoclax + Pictilisib (first compound 1 µM), 0.494.

Consider BEN, for which the relative viability in the test with Venetoclax + Foretinib (first compound 0.01 µM) came out at 0.728; in the test with Venetoclax + Foretinib (first compound 0.03162 µM) it was 0.743; in the test with Venetoclax + Foretinib (first compound 0.1 µM), 0.561; with Venetoclax + Foretinib (first compound 0.3162 µM), 0.681; in the test with Venetoclax + Foretinib (first compound 1 µM), 0.518; with Selumetinib + Olaparib (first compound 0.02 µM), 1.13. The relative viability with Selumetinib + Olaparib (first compound 0.06325 µM) was determined as 1.08; with Selumetinib + Olaparib (first compound 0.2 µM), 1.14; with Selumetinib + Olaparib (first compound 0.6325 µM) it was 0.988; with Selumetinib + Tozasertib (first compound 0.02 µM) it was 0.545; in the test with Selumetinib + Tozasertib (first compound 0.06325 µM) it was 0.442; in the test with Selumetinib + Tozasertib (first compound 0.2 µM), 0.489. Moreover, the relative viability with Selumetinib + Tozasertib (first compound 0.6325 µM) amounted to 0.564; with Venetoclax + Pictilisib (first compound 0.01 µM), 0.738; with Venetoclax + Pictilisib (first compound 0.03162 µM), 0.637; in the test with Venetoclax + Pictilisib (first compound 0.1 µM) it was 0.518; in the test with Venetoclax + Pictilisib (first compound 0.3162 µM) it was 0.557; in the test with Venetoclax + Pictilisib (first compound 1 µM) it was 0.546.

As for LOU-NH91, the relative viability with Venetoclax + Foretinib (first compound 0.01 µM) was determined as 0.895; with Venetoclax + Foretinib (first compound 0.03162 µM), 0.969; with Venetoclax + Foretinib (first compound 0.1 µM), 0.97; with Venetoclax + Foretinib (first compound 0.3162 µM), 0.94; with Venetoclax + Foretinib (first compound 1 µM) it was 0.911; with Selumetinib + Olaparib (first compound 0.02 µM), 0.914. Moreover, the relative viability worked out at 0.845 in the test with Selumetinib + Olaparib (first compound 0.06325 µM); 0.864 in the test with Selumetinib + Olaparib (first compound 0.2 µM); 0.806 with Selumetinib + Olaparib (first compound 0.6325 µM); 0.648 with Selumetinib + Tozasertib (first compound 0.02 µM); 0.679 in the test with Selumetinib + Tozasertib (first compound 0.06325 µM); 0.606 with Selumetinib + Tozasertib (first compound 0.2 µM). For the same cell line, the relative viability is 0.534 with Selumetinib + Tozasertib (first compound 0.6325 µM); 0.515 with Venetoclax + Pictilisib (first compound 0.01 µM); 0.565 with Venetoclax + Pictilisib (first compound 0.03162 µM); 0.54 with Venetoclax + Pictilisib (first compound 0.1 µM); 0.523 with Venetoclax + Pictilisib (first compound 0.3162 µM); 0.53 with Venetoclax + Pictilisib (first compound 1 µM).

As to EKVX, the relative viability with Venetoclax + Foretinib (first compound 0.01 µM) was 0.657; with Venetoclax + Foretinib (first compound 0.03162 µM), 1.24; with Venetoclax + Foretinib (first compound 0.1 µM), 0.332; with Venetoclax + Foretinib (first compound 0.3162 µM) it was 0.795; in the test with Venetoclax + Foretinib (first compound 1 µM) it was 0.788; in the test with Selumetinib + Olaparib (first compound 0.02 µM) it was 0.777. For the same cell line, the relative viability with Selumetinib + Olaparib (first compound 0.06325 µM) amounted to 0.741; with Selumetinib + Olaparib (first compound 0.2 µM) it was 0.643; with Selumetinib + Olaparib (first compound 0.6325 µM), 0.629; with Selumetinib + Tozasertib (first compound 0.02 µM) it was 0.36; with Selumetinib + Tozasertib (first compound 0.06325 µM) it was 0.345; in the test with Selumetinib + Tozasertib (first compound 0.2 µM), 0.378. For the same cell line, the relative viability is 0.336 with Selumetinib + Tozasertib (first compound 0.6325 µM); 0.451 with Venetoclax + Pictilisib (first compound 0.01 µM); 0.432 with Venetoclax + Pictilisib (first compound 0.03162 µM); 0.423 with Venetoclax + Pictilisib (first compound 0.1 µM); 0.469 with Venetoclax + Pictilisib (first compound 0.3162 µM); 0.395 with Venetoclax + Pictilisib (first compound 1 µM).

For NCI-H1355, the relative viability was found to be 0.967 with Venetoclax + Foretinib (first compound 0.01 µM); 1.05 with Venetoclax + Foretinib (first compound 0.03162 µM); 1.05 with Venetoclax + Foretinib (first compound 0.1 µM); 1.02 with Venetoclax + Foretinib (first compound 0.3162 µM); 0.978 with Venetoclax + Foretinib (first compound 1 µM); 0.696 in the test with Selumetinib + Olaparib (first compound 0.02 µM). Further, the relative viability with Selumetinib + Olaparib (first compound 0.06325 µM) was 0.614; with Selumetinib + Olaparib (first compound 0.2 µM) it was 0.616; with Selumetinib + Olaparib (first compound 0.6325 µM), 0.534; with Selumetinib + Tozasertib (first compound 0.02 µM) it was 0.536; with Selumetinib + Tozasertib (first compound 0.06325 µM), 0.567; with Selumetinib + Tozasertib (first compound 0.2 µM), 0.445. For the same cell line, the relative viability was 0.414 with Selumetinib + Tozasertib (first compound 0.6325 µM); 0.493 with Venetoclax + Pictilisib (first compound 0.01 µM); 0.547 with Venetoclax + Pictilisib (first compound 0.03162 µM); 0.377 with Venetoclax + Pictilisib (first compound 0.1 µM); 0.467 with Venetoclax + Pictilisib (first compound 0.3162 µM); 0.404 with Venetoclax + Pictilisib (first compound 1 µM).

Values taken from the supplement of paper PMC10307832.
